Measurements: patent US11814448B2, “Carrier peptide fragment and use thereof” (TOAGOSEI CO., LTD., priority 2020, dated 2023)
FAM = FAM fluorescent dye

Test system: HeLa cells
Test: Evaluation of cell membrane permeability by flow cytometry (FAM fluorescence) in HeLa cells
Format: cell-based, human
Conditions: 20-hour incubation; for MFI (mean fluorescent intensity): 10 μM in culture medium, 0.5% DMSO, FL2 fluorescence detector; for introduction of the fluorescent dye (FAM) into the cytoplasm, from the histogram shift (FIG. 1), compared with Example 3 (FAM only): histogram of fluorescent intensity vs cell count
Method: The cell membrane permeability of sample 1 and sample 2 was evaluated using HeLa cells (an established cell line derived from human cervical cancer cells) as the eukaryotic cells.
HeLa cells were cultured on DMEM (Dulbecco's modified Eagle's medium (Cat. No. 043-30085, from FUJIFILM Wako Pure Chemical Corporation)) containing 10% FBS (fetal bovine serum), which is a general culture medium.
The HeLa cells attached to the culture plate were washed with PBS, a 0.25% trypsin/EDTA solution was then added, and incubation was carried out for 3 minutes at 37° C. After this incubation, the aforementioned DMEM containing 10% FBS was added and the trypsin was inactivated, and the cells were then sedimented by carrying out centrifugal separation for 5 minutes at 150×g. The supernatant produced by the centrifugal separation was removed, and the aforementioned DMEM containing 10% FBS was added to the sediment (cell pellet) to prepare a cell suspension containing approximately 1×10^5 cells/mL. The cells were seeded (approximately 2×10^5 cells/well) by the addition of 2 mL of this cell suspension to the wells of a commercial 6-well plate ((Iwaki microplate commercially available from AGC techno glass Co., Ltd). The cells were attached to the well bottom by culture for 3 hours at 37° C. under the condition of 5% CO2.
The 2 mM sample solution 1 was then diluted with the aforementioned DMEM containing 10% FBS to prepare a sample solution 1 in which the sample 1 concentration was 20 μM. After the aforementioned 3-hour culture, 1 mL of the culture supernatant was removed from the wells, followed by the addition to the wells of 1 mL of the 20 μM sample solution 1 (i.e., the concentration of sample 1 in the culture medium in the wells was brought to 10 μM and the DMSO concentration was brought to 0.5%). The cells were incubated for 20 hours at 37° C. under the condition of 5% CO2. After this 20-hour incubation, the culture supernatant was removed from the wells and the cells in the wells were washed twice with 1 mL PBS. 200 μL of 0.25% trypsin/EDTA was then added to the wells and incubation was carried out for 3 minutes at 37° C. After this incubation, the trypsin was inactivated by the addition of 400 μL of the aforementioned DMEM containing 10% FBS to the wells, and the cells were subsequently recovered by transferring the cell suspensions in the wells to a tube. The wells were then washed by the further addition of 600 μL PBS to the wells. The cells that had remained in the wells were recovered to the tube by transferring the PBS in the wells to the tube. Centrifugal separation was run on this tube for 5 minutes using conditions of 4° C. and 210×g. After the centrifugal separation, the supernatant was removed, the sediment (cell pellet) was suspended (washed) with 1 mL of PBS, and centrifugal separation was carried out using the same conditions as before. After this procedure has been repeated twice, the supernatant was removed to obtain cells (cell pellet) that had been cultured on a sample 1-containing culture medium.
The cell permeability of sample 1 was analyzed using the resulting cells (cell pellet) and a flow cytometer. An On-Chip Flow Cytometer (On-chip Biotechnologies Co., Ltd.) was used for the flow cytometer.
For this analysis, the cell pellet obtained as described above was suspended in 50 μL PBS. To this suspension was added 50 μL of 2×Sample Buffer for use with the indicated flow cytometer to prepare a cell suspension for submission to analysis.
Gating was performed using this flow cytometer based on forward scatter (FSC) and side scatter (SSC); the gating was set for the cell population that was the target of the analysis; and the fluorescent intensity was measured for the cell population within this gating. The analysis was performed so this cell population reached approximately 10,000. […]

| Substance | MFI (mean fluorescent intensity) | introduction of the fluorescent dye (FAM) into the cytoplasm, from the histogram shift (FIG. 1), compared with Example 3 (FAM only) (10 μM) | efficiency (cell membrane permeability) compared using the MFI, Example 1 versus Example 2 (10 μM, ratio of MFI values of Table 3) |
| --- | --- | --- | --- |
| 5(6)-carboxyfluorescein [Example 3] | 5.9 |  |  |
| FAM-VVRSLVKVVRSLVK-CONH2 ({FAM}-VVRSLVKVVRSLVK-NH2) [Example 1] | 690 | more efficiently introduced | approximately 65.7 times |
| FAM-KKRTLRKNDRKKR-CONH2 ({FAM}-KKRTLRKNDRKKR-NH2) [Example 2] | 10.5 | more efficiently introduced |  |
